Data reported in ChEMBL document CHEMBL4665642, “Anticancer profile of newly synthesized BRAF inhibitors possess 5-(pyrimidin-4-yl)imidazo[2,1-b]thiazole scaffold” (Bioorg Med Chem, 2019).

How the values were obtained:
Format in all cases: functional
Settings in all cases: read-out: Activity
UACC-257 = assay: Cytotoxicity against human UACC-257 cells assessed as cell viability at 10 uM incubated for 48 hrs by sulforhodamine B assay relative to control
NCI-H522 = assay: Cytotoxicity against human NCI-H522 cells assessed as cell viability at 10 uM incubated for 48 hrs by sulforhodamine B assay relative to control
OVCAR-3 = assay: Cytotoxicity against human OVCAR-3 cells assessed as cell viability at 10 uM incubated for 48 hrs by sulforhodamine B assay relative to control
LOX IMVI = assay: Cytotoxicity against human LOX IMVI cells assessed as cell viability at 10 uM incubated for 48 hrs by sulforhodamine B assay relative to control
MDA-MB-435 = assay: Cytotoxicity against human MDA-MB-435 cells assessed as cell viability at 10 uM incubated for 48 hrs by sulforhodamine B assay relative to control
HCT-116 = assay: Cytotoxicity against human HCT-116 cells assessed as cell viability at 10 uM incubated for 48 hrs by sulforhodamine B assay relative to control
HCT-29 = assay: Cytotoxicity against human […] cells assessed as cell viability at 10 uM incubated for 48 hrs by sulforhodamine B assay relative to control
MDA-MB-468 = assay: Cytotoxicity against human MDA-MB-468 cells assessed as cell viability at 10 uM incubated for 48 hrs by sulforhodamine B assay relative to control
NCI-H23 = assay: Cytotoxicity against human NCI-H23 cells assessed as cell viability at 10 uM incubated for 48 hrs by sulforhodamine B assay relative to control
CAKI-1 = assay: Cytotoxicity against human CAKI-1 cells assessed as cell viability at 10 uM incubated for 48 hrs by sulforhodamine B assay relative to control
KM12 = assay: Cytotoxicity against human KM12 cells assessed as cell viability at 10 uM incubated for 48 hrs by sulforhodamine B assay relative to control
BT-549 = assay: Cytotoxicity against human BT-549 cells assessed as cell viability at 10 uM incubated for 48 hrs by sulforhodamine B assay relative to control
HCT-15 = assay: Cytotoxicity against human HCT-15 cells assessed as cell viability at 10 uM incubated for 48 hrs by sulforhodamine B assay relative to control
TK-10 = assay: Cytotoxicity against human TK-10 cells assessed as cell viability at 10 uM incubated for 48 hrs by sulforhodamine B assay relative to control
COLO 205 = assay: Cytotoxicity against human COLO 205 cells assessed as cell viability at 10 uM incubated for 48 hrs by sulforhodamine B assay relative to control
SR = assay: Cytotoxicity against human SR cells assessed as cell viability at 10 uM incubated for 48 hrs by sulforhodamine B assay relative to control
NCI/ADR-RES = assay: Cytotoxicity against human NCI/ADR-RES cells assessed as cell viability at 10 uM incubated for 48 hrs by sulforhodamine B assay relative to control
HOP-92 = assay: Cytotoxicity against human HOP-92 cells assessed as cell viability at 10 uM incubated for 48 hrs by sulforhodamine B assay relative to control
SN12C = assay: Cytotoxicity against human SN12C cells assessed as cell viability at 10 uM incubated for 48 hrs by sulforhodamine B assay relative to control
786-0 = assay: Cytotoxicity against human 786-0 cells assessed as cell viability at 10 uM incubated for 48 hrs by sulforhodamine B assay relative to control
SK-MEL-28 = assay: Cytotoxicity against human SK-MEL-28 cells assessed as cell viability at 10 uM incubated for 48 hrs by sulforhodamine B assay relative to control
SF-295 = assay: Cytotoxicity against human SF-295 cells assessed as cell viability at 10 uM incubated for 48 hrs by sulforhodamine B assay relative to control
CCRF-CEM = assay: Cytotoxicity against human CCRF-CEM cells assessed as cell viability at 10 uM incubated for 48 hrs by sulforhodamine B assay relative to control
NCI-H226 = assay: Cytotoxicity against human NCI-H226 cells assessed as cell viability at 10 uM incubated for 48 hrs by sulforhodamine B assay relative to control
M14 = assay: Cytotoxicity against human M14 cells assessed as cell viability at 10 uM incubated for 48 hrs by sulforhodamine B assay relative to control
NCI-H460 = assay: Cytotoxicity against human NCI-H460 cells assessed as cell viability at 10 uM incubated for 48 hrs by sulforhodamine B assay relative to control
Hs-578T = assay: Cytotoxicity against human HS-578T cells assessed as cell viability at 10 uM incubated for 48 hrs by sulforhodamine B assay relative to control
Malme-3M = assay: Cytotoxicity against human Malme-3M cells assessed as cell viability at 10 uM incubated for 48 hrs by sulforhodamine B assay relative to control
NCI-H322M = assay: Cytotoxicity against human NCI-H322M cells assessed as cell viability at 10 uM incubated for 48 hrs by sulforhodamine B assay relative to control
SF-268 = assay: Cytotoxicity against human SF-268 cells assessed as cell viability at 10 uM incubated for 48 hrs by sulforhodamine B assay relative to control
DU-145 = assay: Cytotoxicity against human DU-145 cells assessed as cell viability at 10 uM incubated for 48 hrs by sulforhodamine B assay relative to control
RXF 393 = assay: Cytotoxicity against human RXF 393 cells assessed as cell viability at 10 uM incubated for 48 hrs by sulforhodamine B assay relative to control
SNB-75 = assay: Cytotoxicity against human SNB-75 cells assessed as cell viability at 10 uM incubated for 48 hrs by sulforhodamine B assay relative to control
OVCAR-8 = assay: Cytotoxicity against human OVCAR-8 cells assessed as cell viability at 10 uM incubated for 48 hrs by sulforhodamine B assay relative to control
UACC-62 = assay: Cytotoxicity against human UACC-62 cells assessed as cell viability at 10 uM incubated for 48 hrs by sulforhodamine B assay relative to control
SW-620 = assay: Cytotoxicity against human SW-620 cells assessed as cell viability at 10 uM incubated for 48 hrs by sulforhodamine B assay relative to control
ACHN = assay: Cytotoxicity against human ACHN cells assessed as cell viability at 10 uM incubated for 48 hrs by sulforhodamine B assay relative to control
U-251 = assay: Cytotoxicity against human U-251 cells assessed as cell viability at 10 uM incubated for 48 hrs by sulforhodamine B assay relative to control
MDA-MB-231 = assay: Cytotoxicity against human MDA-MB-231 cells assessed as cell viability at 10 uM incubated for 48 hrs by sulforhodamine B assay relative to control
SK-OV-3 = assay: Cytotoxicity against human SK-OV-3 cells assessed as cell viability at 10 uM incubated for 48 hrs by sulforhodamine B assay relative to control

| SMILES | viability at 10 µM (UACC-257) | viability at 10 µM (NCI-H522) | viability at 10 µM (OVCAR-3) | viability at 10 µM (LOX IMVI) | viability at 10 µM (MDA-MB-435) | viability at 10 µM (HCT-116) | viability at 10 µM (HCT-29) | viability at 10 µM (MDA-MB-468) | viability at 10 µM (NCI-H23) | viability at 10 µM (CAKI-1) | viability at 10 µM (KM12) | viability at 10 µM (BT-549) | viability at 10 µM (HCT-15) | viability at 10 µM (TK-10) | viability at 10 µM (COLO 205) | viability at 10 µM (SR) | viability at 10 µM (NCI/ADR-RES) | viability at 10 µM (HOP-92) | viability at 10 µM (SN12C) | viability at 10 µM (786-0) | further results |
| --- | --- | --- | --- | --- | --- | --- | --- | --- | --- | --- | --- | --- | --- | --- | --- | --- | --- | --- | --- | --- | --- |
| O=S(=O)(NCCNc1nccc(-c2c(-c3cccc(F)c3)nc3sccn23)n1)c1ccccc1 | 65.3% | 43.7% | 58.9% | 36.3% | 17.4% | 22.7% | 23.2% | 43.6% | 56.1% | 39.1% | 28.8% | 50.4% | 25.8% | 59.5% | 24.1% | 29.2% | 46.3% | 51.5% | 40.3% | 47.4% | viability at 10 µM (SK-MEL-28): 54.3%; viability at 10 µM (SF-295): 47.4%; viability at 10 µM (CCRF-CEM): 33.6%; viability at 10 µM (NCI-H226): 34.5%; viability at 10 µM (M14): 41.4%; viability at 10 µM (NCI-H460): 25.9%; viability at 10 µM (Hs-578T): 55.5%; viability at 10 µM (Malme-3M): 68.5%; viability at 10 µM (NCI-H322M): 51.5%; viability at 10 µM (SF-268): 43.5%; viability at 10 µM (DU-145): 40%; viability at 10 µM (RXF 393): 64.1%; viability at 10 µM (SNB-75): 71.5%; viability at 10 µM (OVCAR-8): 33.9%; viability at 10 µM (UACC-62): 24.9%; viability at 10 µM (SW-620): 44.5%; viability at 10 µM (ACHN): 26%; viability at 10 µM (U-251): 44%; viability at 10 µM (MDA-MB-231): 66%; viability at 10 µM (SK-OV-3): 57.1% |
| O=C(NCCNc1nccc(-c2c(-c3cccc(F)c3)nc3sccn23)n1)c1ccc(C(F)(F)F)cc1 | 96.8% | 65.7% | 76.5% | 64.8% | 47.7% | 50.6% | 50.2% | 77.6% | 80% | 55% | 75.1% | 78.9% | 53.1% | 86.1% | 32.7% | 68.9% | 73.1% | 86.7% | 66.6% | 65.7% | viability at 10 µM (SK-MEL-28): 82.1%; viability at 10 µM (SF-295): 74.4%; viability at 10 µM (CCRF-CEM): 53.5%; viability at 10 µM (NCI-H226): 64.8%; viability at 10 µM (M14): 59.4%; viability at 10 µM (NCI-H460): 73.2%; viability at 10 µM (Hs-578T): 85.2%; viability at 10 µM (Malme-3M): 55.7%; viability at 10 µM (NCI-H322M): 81.8%; viability at 10 µM (SF-268): 64.9%; viability at 10 µM (DU-145): 83.7%; viability at 10 µM (RXF 393): 81.9%; viability at 10 µM (SNB-75): 73.7%; viability at 10 µM (OVCAR-8): 54.8%; viability at 10 µM (UACC-62): 26.4%; viability at 10 µM (SW-620): 79%; viability at 10 µM (ACHN): 42.6%; viability at 10 µM (U-251): 77%; viability at 10 µM (MDA-MB-231): 74.7%; viability at 10 µM (SK-OV-3): 70.2% |
| O=S(=O)(NCCCNc1nccc(-c2c(-c3cccc(F)c3)nc3sccn23)n1)c1cccc(F)c1 | 50.8% | 21.9% | 50.7% | 39% | 24% | 48% | 30.6% | 33% | 38.8% | 41.5% | 29.9% | 33.2% | 22.6% | 72.3% | 23.4% | 64.9% | 17.6% | 74.8% | 56.3% | 66.3% | viability at 10 µM (SK-MEL-28): 68.3%; viability at 10 µM (SF-295): 51.1%; viability at 10 µM (CCRF-CEM): 24.7%; viability at 10 µM (NCI-H226): 23.2%; viability at 10 µM (M14): 28.6%; viability at 10 µM (NCI-H460): 58.3%; viability at 10 µM (Hs-578T): 63.7%; viability at 10 µM (Malme-3M): 63.2%; viability at 10 µM (NCI-H322M): 79.9%; viability at 10 µM (SF-268): 55.6%; viability at 10 µM (DU-145): 55.5%; viability at 10 µM (RXF 393): 78.8%; viability at 10 µM (SNB-75): 88.6%; viability at 10 µM (OVCAR-8): 18.4%; viability at 10 µM (UACC-62): 6.36%; viability at 10 µM (SW-620): 76.7%; viability at 10 µM (ACHN): 42.5%; viability at 10 µM (U-251): 70%; viability at 10 µM (MDA-MB-231): 75.9%; viability at 10 µM (SK-OV-3): 66% |
